Source: patent publication US10087165B2, “Fluoroquinolones and use thereof to treat bacterial infections” (UNIVERSITÉ PIERRE ET MARIE CURIE—PARIS 6 (UPMC), priority 2014, dated 2018)
Converted amounts (≈) assume the structure as drawn. Read-outs that look alike come from different tables or passages of the source.

Assays:
[1] = tested on: multidrug-resistant M. tuberculosis clinical strain GV1503014223; experiment: microbe, parasite or virus in culture; type: cell-based; conditions: Mycobacterium tuberculosis; MDR clinical strain; Table 3
[2] = tested on: M. tuberculosis H37Rv GyrA D94G; type: cell-based
[3] = tested on: M. tuberculosis H37Rv GyrA A90V; type: cell-based
[4] = tested on: multidrug-resistant M. tuberculosis clinical strain XCC1503082245; experiment: microbe, parasite or virus in culture; type: cell-based; conditions: Mycobacterium tuberculosis; MDR clinical strain; Table 3
[5] = tested on: multidrug-resistant M. tuberculosis clinical strain KC1503006247; experiment: microbe, parasite or virus in culture; type: cell-based; conditions: Mycobacterium tuberculosis; MDR clinical strain; Table 3
[6] = tested on: M. tuberculosis H37Rv GyrB D500N; type: cell-based
[7] = tested on: quinolone-resistant M. tuberculosis strains (GyrB D500N, GyrA D94G and GyrA A90V strains); type: cell-based
[8] = tested on: M. tuberculosis H37Rv GyrA A90V; conditions: Table 2, published previously (Poissy et al. 2010); cited from earlier work
[9] = tested on: M. tuberculosis H37Rv GyrA D94G; conditions: Table 2, published previously (Poissy et al. 2010); cited from earlier work

| SMILES | MIC [1] [µM] | MIC M. tuberculosis H37Rv GyrA D94G [2] [µM] | MIC M. tuberculosis H37Rv GyrA A90V [3] [µM] | MIC [4] [µM] | MIC [5] [µM] | MIC M. tuberculosis H37Rv GyrB D500N [6] [µM] | MIC (M. tuberculosis) D94G [2] [µM] | MIC (M. tuberculosis) A90V [3] [µM] | antibacterial activity against quinolone-resistant M. tuberculosis strains (in words) [7] | MIC (M. tuberculosis) A90V [8] [µM] | MIC (M. tuberculosis) D94G [9] [µM] |
| --- | --- | --- | --- | --- | --- | --- | --- | --- | --- | --- | --- |
| CCCCCCCCCN1CCN(c2c(F)cc3c(=O)c(C(=O)O)cn(C4CC4)c3c2OC)CC1 [Compound 17, 1-cyclopropyl-6-fluoro-8-methoxy-7-(4-nonylpiperazin-1-yl)-4-oxo-1,4-dihydroquinoline-3-carboxylic acid] | < 0.12 | 2 (≈ 0.975 µg/mL) | 2 (≈ 0.975 µg/mL) | 1 (≈ 0.488 µg/mL) | < 0.12 | 0.5 (≈ 0.244 µg/mL) |  |  |  |  |  |
| CCCCCN1CCN(c2c(F)cc3c(=O)c(C(=O)O)cn(C4CC4)c3c2OC)CC1 [Quin 17, 1-cyclopropyl-6-fluoro-8-methoxy-4-oxo-7-(4-pentylpiperazin-1-yl)-1,4-dihydroquinoline-3-carboxylic acid] |  |  |  |  |  |  | >18.5 | 18.5 (≈ 7.98 µg/mL) |  |  |  |
| CCCCCCCCCCCCN1CCN(c2c(F)cc3c(=O)c(C(=O)O)cn(C4CC4)c3c2OC)CC1 [Compound 20, 1-cyclopropyl-7-(4-dodecylpiperazin-1-yl)-6-fluoro-8-methoxy-4-oxo-1,4-dihydroquinoline-3-carboxylic acid] | 0.47 (≈ 0.249 µg/mL) | 1.9 (≈ 1.01 µg/mL) | 1.9 (≈ 1.01 µg/mL) | 0.47 (≈ 0.249 µg/mL) | 0.47 (≈ 0.249 µg/mL) | 0.23 (≈ 0.122 µg/mL) |  |  |  |  |  |
| CCCCCCCCCCCCCCCCN1CCN(c2c(F)cc3c(=O)c(C(=O)O)cn(C4CC4)c3c2OC)CC1 [Quin 20, 1-cyclopropyl-6-fluoro-7-(4-hexadecylpiperazin-1-yl)-8-methoxy-4-oxo-1,4-dihydroquinoline-3-carboxylic acid] |  |  |  |  |  |  | >13.7 | 13.7 (≈ 8.03 µg/mL) |  |  |  |
| CCCCCCCCCCN1CCN(c2c(F)cc3c(=O)c(C(=O)O)cn(C4CC4)c3c2OC)CC1 [Quin 19, 1-cyclopropyl-7-(4-decylpiperazin-1-yl)-6-fluoro-8-methoxy-4-oxo-1,4-dihydroquinoline-3-carboxylic acid] | < 0.12 | 2 (≈ 1 µg/mL) | 1 (≈ 0.502 µg/mL) | 0.5 (≈ 0.251 µg/mL) | < 0.12 | 0.5 (≈ 0.251 µg/mL) | 1 (≈ 0.502 µg/mL) | 0.5 (≈ 0.251 µg/mL) | high antibacterial activity |  |  |
| CCCCCCCN1CCN(c2c(F)cc3c(=O)c(C(=O)O)cn(C4CC4)c3c2OC)CC1 [Compound 15, 1-cyclopropyl-6-fluoro-7-(4-heptylpiperazin-1-yl)-8-methoxy-4-oxo-1,4-dihydroquinoline-3-carboxylic acid] | 1 (≈ 0.46 µg/mL) | 0.5 (≈ 0.23 µg/mL) | 2.2 (≈ 1.01 µg/mL) | 1 (≈ 0.46 µg/mL) | 1 (≈ 0.46 µg/mL) | 2.2 (≈ 1.01 µg/mL) |  |  |  |  |  |
| COc1c(N2CCNC(C)C2)c(F)cc2c(=O)c(C(=O)O)cn(C3CC3)c12 (stereo not drawn) [Gatifloxacin, gatifloxacin] |  |  |  |  |  |  |  |  |  | 5.33 (≈ 2 µg/mL) | 2.66 (≈ 0.999 µg/mL) |
| CCCCCCCCCCN1CCN(c2cc3c(cc2F)c(=O)c(C(=O)O)cn3C2CC2)CC1 [Quin 9, 1-cyclopropyl-7-(4-decylpiperazin-1-yl)-6-fluoro-4-oxo-1,4-dihydroquinoline-3-carboxylic acid] |  |  |  |  |  |  | ≥4.8 | ≥4.8 |  |  |  |
| CCCCCCCCN1CCN(c2c(F)cc3c(=O)c(C(=O)O)cn(C4CC4)c3c2OC)CC1 [Quin 18, 1-cyclopropyl-6-fluoro-8-methoxy-7-(4-octylpiperazin-1-yl)-4-oxo-1,4-dihydroquinoline-3-carboxylic acid] | < 0.12 | 2 (≈ 0.947 µg/mL) | 2 (≈ 0.947 µg/mL) | 0.12 (≈ 0.0568 µg/mL) | < 0.12 | <0.12 | 2 (≈ 0.947 µg/mL) | 0.5 (≈ 0.237 µg/mL) | high antibacterial activity |  |  |
| CCCCCCCCN1CCN(c2cc3c(cc2F)c(=O)c(C(=O)O)cn3C2CC2)CC1 [Quin 16, 1-cyclopropyl-6-fluoro-7-(4-octylpiperazin-1-yl)-4-oxo-1,4-dihydroquinoline-3-carboxylic acid] |  |  |  |  |  |  | 13.5 (≈ 5.99 µg/mL) | 6.7 (≈ 2.97 µg/mL) |  |  |  |
| O=C(O)c1cn(C2CC2)c2cc(N3CCNCC3)c(F)cc2c1=O [Ciprofloxacin, ciprofloxacin, reference compound] |  |  |  |  |  |  | ≥24 | ≥24 |  |  |  |
| CCCCCCCCCCCN1CCN(c2c(F)cc3c(=O)c(C(=O)O)cn(C4CC4)c3c2OC)CC1 [Compound 19, 1-cyclopropyl-6-fluoro-8-methoxy-4-oxo-7-(4-undecylpiperazin-1-yl)-1,4-dihydroquinoline-3-carboxylic acid] | 0.5 (≈ 0.258 µg/mL) | 10 (≈ 5.16 µg/mL) | 10 (≈ 5.16 µg/mL) | 0.5 (≈ 0.258 µg/mL) | 0.12 (≈ 0.0619 µg/mL) | 2 (≈ 1.03 µg/mL) |  |  |  |  |  |
